Source: ChEMBL document CHEMBL3352544, “Screening and identification of novel compounds with potential anti-proliferative effects on gallium-resistant lung cancer through an AXL kinase pathway” (Bioorg Med Chem Lett, 2014)
Activity calls are given as the source filed them. No cut-off for these calls is given here.

Key:
Format in all cases: functional, cell-based
A549 [1] = test: Antiproliferative activity against gallium-resistant human A549 cells after 48 hrs by MTT assay; details: A549, 48 h
A549 [2] = test: Potentiation of gallium acetylacetonate-induced antiproliferative activity against gallium-resistant human A549 cells assessed as allium acetylacetonate IC50 at 0.25 uM after 48 hrs by MTT assay; details: A549, 48 h
A549 [3] = test: Potentiation of gallium acetylacetonate-induced antiproliferative activity against gallium-resistant human A549 cells at 0.25 uM after 48 hrs by MTT assay
A549 [4] = test: Antiproliferative activity against gallium-sensitive human A549 cells after 48 hrs by MTT assay; details: A549, 48 h
A549 [5] = test: Effect on AXL protein expression in gallium-sensitive human A549 cells at 50 uM fter 48 hrs by immunofluorescence assay
A549 [6] = test: Potentiation of gallium acetylacetonate-induced antiproliferative activity against gallium-sensitive human A549 cells at 0.25 uM after 48 hrs by MTT assay
A549 [7] = test: Reduction in AXL protein expression in gallium-resistant human A549 cells at 50 uM fter 48 hrs by immunofluorescence assay

For `Oc1c(CN2CCN(Cc3ccc4cccnc4c3O)CC2)ccc2cccnc12`, the IC50 (A549 [1]) was 2.8 µM, the IC50 (A549 [2]) was 102 µM and the Activity (A549 [3]) was “Active”. The IC50 (A549 [4]) was 3.6 µM, the Activity (A549 [5]) was “inactive” and the Activity (A549 [6]) was “inactive”. The Activity (A549 [7]) was “Active”.
With `O=C(CSc1nnnn1-c1cccc2ccccc12)c1ccc(O)c(O)c1` the IC50 (A549 [1]) was 17.4 µM, the IC50 (A549 [2]) was 199 µM and the Activity (A549 [3]) was “Active”. For the same compound, the IC50 (A549 [4]) was 8.6 µM, the Activity (A549 [5]) was “inactive” and the Activity (A549 [6]) was “inactive”. For the same compound, the Activity (A549 [7]) was “Active”.
